Patent US11679108B2, “Aromatic heterocyclic compound, and pharmaceutical composition and use thereof” (GUANGZHOU HENOVCOM BIOSCIENCE CO., LTD., priority 2018, dated 2023)
pIC50: −log10 of the molar value.

Molecular target: ATX (Homo sapiens, UniProt Q13822)
Test: Analysis in vitro: LPC was used as substrate for screening enzyme activity (Amplex Red fluorescence)
Type: biochemical
Conditions: inhibitory activity against ATX, with LPC as substrate
Source text: Analysis In Vitro: LPC was Used as Substrate for Screening Enzyme Activity
Principle: Lysophosphatidylcholine (LPC) as substrate is hydrolyzed by using the activity of lysoPLD enzyme, to produce lysophosphatidic acid (LPA) and choline, which is oxidized to produce H2O2 under the action of choline oxidase. In presence of horse radish peroxidase (HPR), Amplex Red reagent is reacted with H2O2 in a quantitative chemistry ratio of 1 to 1, to produce strong fluorescence products, which are detected by a fluorescent quantitative test.
Experimental procedures: the compounds to be tested were dissolved in DMSO, to prepare 10 mM of stock solution, which was diluted in a gradient concentration of 3 times with DMSO from 10 mM, to generate 10 concentration gradients. The reaction buffer solution was used for preparing a mixed solution 1 of 2 ng/μl ATX, 2 U/ml HRP and 0.2 U/ml choline oxidase in a final concentration. 20 μl of the above mixed solution 1 was added to each hole of an experiment board, […]. The compounds diluted with DMSO were transferred into an experiment board with Echo550. The reaction buffer solution was used for preparing a mixed solution 2 of […] LPC and 400 μM Amplex Red in a final concentration. 20 μl of the above mixed solution 2 was added to each hole of the experiment board. After addition, the experiment board was shook for 30 seconds on a shaker, and incubated for 30 minutes. Envision was used to read the fluorescence signals with an exciting light at 530 nm and emitted light at 590 nm. Inhibition ratio of the compounds to enzyme reaction was calculated according to the ratio of fluorescence, and IC50 of the compounds was analyzed and calculated by software, seeing Table 1.

Q: With `CCc1nc2sc(N3CCC(N(C)S(=O)(=O)C4CC4)C3)nn2c1N(C)c1nc(-c2ccc(F)cc2)c(C#N)s1` (stereo not drawn) [Example 28, N-{1-[5-((5-cyano-4-(4-fluorophenyl)thiazol-2-yl)(methyl)amino)-6-ethylimidazo[2,1-b][1,3,4]thiadiazol-2-yl}pyrrolidin-3-yl}-N-methylcyclopropanesulfonamide] as the compound, how does the pIC50 read?
A: 6.30 to 7.00

Q: How did the pIC50 turn out when `CCc1nc2sc(N3CCN(CC(=O)N4CC(O)C4)[C@H](CO)C3)nn2c1N(C)c1nc(-c2ccc(F)cc2)c(C#N)s1` [Example 82, (S)-2-{[6-ethyl-2-(4-(2-(3-hydroxyazetidin-1-yl)-2-oxoethyl)-3-(hydroxymethyl)piperazin-1-yl)imidazo[2,1-b][1,3,4]thiadiazol-5-yl](methyl)amino}-4-(4-fluorophenyl)thiazole-5-carbonitrile] was run?
A: 6.30 to 7.00

Q: `CCc1nc2sc(N3CCCC(N(C)C(=O)NC(C)(C)C)C3)nn2c1N(C)c1nc(-c2ccc(F)cc2)c(C#N)s1` (stereo not drawn) [Example 26, 3-tert-butyl-1-{1-[5-((5-cyano-4-(4-fluorophenyl)thiazol-2-yl)(methyl)amino)-6-ethylimidazo[2,1-b][1,3,4]thiadiazol-2-yl]piperidin-3-yl}-1-methylurea] was tested. Which pIC50 did it give?
A: ≤ 6.00

Q: `CCc1nc2sc(N3CC4(C3)CN(S(C)(=O)=O)C4)nn2c1N(C)c1nc(-c2ccc(F)cc2)c(C#N)s1` [Example 5] was tested. Which pIC50 did it give?
A: 6.00 to 6.30

Q: How did the pIC50 turn out when `CCc1nc2sc(N3CC[C@@H](N(C)CC(=O)N4CC(C#N)C4)C3)nn2c1N(C)c1nc(-c2ccc(F)cc2)c(C#N)s1` [Example 46, (R)-2-{[2-(3-((2-(3-cyanoazetidin-1-yl)-2-oxoethyl)(methyl)amino)pyrrolidin-1-yl)-6-ethylimidazo[2,1-b][1,3,4]thiadiazol-5-yl](methyl)amino}-4-(4-fluorophenyl)thiazole-5-carbonitrile] was run?
A: 6.30 to 7.00

Q: `CCc1nc2sc(N3CC[C@@H](N(C)CC(=O)N4CCOCC4)C3)nn2c1N(C)c1nc(-c2ccc(F)cc2)c(C#N)s1` [Example 40, (R)-2-{[6-ethyl-2-(3-(methyl(2-morpholino-2-oxoethyl)amino)pyrrolidin-1-yl)imidazo[2,1-b][1,3,4]thiadiazol-5-yl](methyl)amino}-4-(4-fluorophenyl)thiazole-5-carbonitrile] was tested. Which pIC50 did it give?
A: 6.30 to 7.00

Q: How did the pIC50 turn out when `CCc1nc2sc(N3CCN(CC(=O)N4CC(O)C4)[C@@H](CO)C3)nn2c1N(C)c1nc(-c2ccc(F)cc2)c(C#N)s1` [Example 85, (R)-2-{[6-ethyl-2-(4-(2-(3-hydroxyazetidin-1-yl)-2-oxoethyl)-3-(hydroxymethyl)piperazin-1-yl)imidazo[2,1-b][1,3,4]thiadiazol-5-yl](methyl)amino}-4-(4-fluorophenyl)thiazole-5-carbonitrile] was run?
A: 6.00 to 6.30

Q: How did the pIC50 turn out when `CCc1nc2sc(N3CCC(N(C)CC(=O)N4CC(C(=O)O)C4)C3)nn2c1N(C)c1nc(-c2ccc(F)cc2)c(C#N)s1` (stereo not drawn) [Example 35, 1-{2-[(1-(5-((5-cyano-4-(4-fluorophenyl)thiazol-2-yl)(methyl)amino)-6-ethylimidazo[2,1-b][1,3,4]thiadiazol-2-yl)pyrrolidin-3-yl)(methyl)amino]acetyl}azetidine-3-carboxylic acid] was run?
A: 7.00 to 11.00

Q: `CCc1nc2sc(N3CC[C@@H](N(CC(=O)N4CC(O)C4)CC4CC4)C3)nn2c1N(C)c1nc(-c2ccc(F)cc2)c(C#N)s1` [Example 90] was tested. Which pIC50 did it give?
A: ≤ 6.00

Q: With `CCc1nc2sc(C3CCN(S(C)(=O)=O)CC3)nn2c1N(C)c1nc(-c2ccc(F)cc2)c(C#N)s1` [Example 16, 2-{[6-ethyl-2-(1-(methylsulfonyl)piperidin-4-yl)imidazo[2,1-b][1,3,4]thiadiazol-5-yl](methyl)amino}-4-(4-fluorophenyl)-thiazole-5-carbonitrile] as the compound, how does the pIC50 read?
A: ≤ 6.00

Q: How did the pIC50 turn out when `CCc1nc2sc(N3CCCC(N(C)S(C)(=O)=O)C3)nn2c1N(C)c1nc(-c2ccc(F)cc2)c(C#N)s1` (stereo not drawn) [Example 13, N-{1-[5-((5-cyano-4-(4-fluorophenyl)thiazol-2-yl)(methyl)amino)-6-ethylimidazo[2,1-b][1,3,4]thiadiazol-2-yl]piperidin-3-yl}-N-methylmethanesulfonamide] was run?
A: 6.30 to 7.00

Q: `CCc1nc2sc(N3CC[C@@H](N(C=O)CC(=O)N4CC(O)C4)C3)nn2c1N(C)c1nc(-c2ccc(F)cc2)c(C#N)s1` [Example 91, (R)—N-{1-[5-((5-cyano-4-(4-fluorophenyl)thiazol-2-yl)(methyl)amino)-6-ethylimidazo[2,1-b][1,3,4]thiadiazol-2-yl]pyrrolidin-3-yl}-N-(2-(3-hydroxyazetidin-1-yl)-2-oxoethyl)formamide] was tested. Which pIC50 did it give?
A: 7.00 to 11.00

Q: `CCc1nc2sc(N3CC[C@H](N(C)CC(=O)N4CC(C(=O)OC)C4)C3)nn2c1N(C)c1nc(-c2ccc(F)cc2)c(C#N)s1` [Example 43, methyl (S)-1-{2-[(1-(5-((5-cyano-4-(4-fluorophenyl)thiazol-2-yl)(methyl)amino)-6-ethylimidazo[2,1-b][1,3,4]thiadiazol-2-yl)pyrrolidin-3-yl)(methyl)amino]acetyl}azetidine-3-carboxylate] was tested. Which pIC50 did it give?
A: 7.00 to 11.00

Q: `CN(c1nc(-c2ccc(F)cc2)c(C#N)s1)c1c(CCO)nc2sc(N3CC[C@@H](N(C)CC(=O)N4CC(O)C4)C3)nn12` [Example 87, (R)-4-(4-fluorophenyl)-2-{[2-(3-((2-(3-hydroxyazetidin-1-yl)-2-oxoethyl)(methyl)amino)pyrrolidin-1-yl)-6-(2-hydroxyethyl)imidazo[2,1-b][1,3,4]thiadiazol-5-yl](methyl)amino}thiazole-5-carbonitrile] was tested. Which pIC50 did it give?
A: 6.00 to 6.30

Q: With `CCc1nc2sc(N3CCN(CC(=O)N4CC(O)C4)[C@H](C(=O)OC)C3)nn2c1N(C)c1nc(-c2ccc(F)cc2)c(C#N)s1` [Example 81, methyl (S)-4-{5-[(5-cyano-4-(4-fluorophenyl)thiazol-2-yl)(methyl)amino]-6-ethylimidazo[2,1-b][1,3,4]thiadiazol-2-yl}-1-(2-(3-hydroxyazetidin-1-yl)-2-oxoethyl)piperazine-2-carboxylate] as the compound, how does the pIC50 read?
A: 7.00 to 11.00

Q: With `CCc1nc2sc(N3CCN(CC(=O)N4CC(O)C4)[C@H](C(=O)NC)C3)nn2c1N(C)c1nc(-c2ccc(F)cc2)c(C#N)s1` [Example 83, (S)-4-{5-[(5-cyano-4-(4-fluorophenyl)thiazol-2-yl)(methyl)amino]-6-ethylimidazo[2,1-b][1,3,4]thiadiazol-2-yl}-1-(2-(3-hydroxyazetidin-1-yl)-2-oxoethyl)-N-methylpiperazine-2-carboxamide] as the compound, how does the pIC50 read?
A: 6.00 to 6.30

Q: How did the pIC50 turn out when `CCc1nc2sc(N3CC[C@@H](N(C)CC(=O)N4CC(C(=O)O)C4)C3)nn2c1N(C)c1nc(-c2ccc(F)cc2)c(C#N)s1` [Example 44, (R)-1-{2-[(1-(5-((5-cyano-4-(4-fluorophenyl)thiazol-2-yl)(methyl)amino)-6-ethylimidazo[2,1-b][1,3,4]thiadiazol-2-yl}pyrrolidin-3-yl)(methyl)amino]acetyl}azetidine-3-carboxylic acid] was run?
A: 6.30 to 7.00

Q: `CN(c1nc(-c2ccc(F)cc2)c(C#N)s1)c1c(CCOCc2ccccc2)nc2sc(N3CC[C@@H](N(C)CC(=O)N4CC(O)C4)C3)nn12` [Example 86] was tested. Which pIC50 did it give?
A: ≤ 6.00

Q: With `COCCc1nc2sc(N3CC[C@@H](N(C)CC(=O)N4CC(O)C4)C3)nn2c1N(C)c1nc(-c2ccc(F)cc2)c(C#N)s1` [Example 88, (R)-4-(4-fluorophenyl)-2-{[2-(3-((2-(3-hydroxyazetidin-1-yl)-2-oxoethyl)(methyl)amino)pyrrolidin-1-yl)-6-(2-methoxyethyl)imidazo[2,1-b][1,3,4]thiadiazol-5-yl](methyl)amino}thiazole-5-carbonitrile] as the compound, how does the pIC50 read?
A: 6.30 to 7.00

Q: `CCc1nc2sc(N3CCC4(CC3)CN(S(C)(=O)=O)C4)nn2c1N(C)c1nc(-c2ccc(F)cc2)c(C#N)s1` [Example 3, 2-{[6-ethyl-2-(4-(methylsulfonyl)-2,7-diazaspiro[3.5]nonan-7-yl)imidazo[2,1-b][1,3,4]thiadiazol-5-yl](methyl)amino}-4-(4-fluorophenyl)thiazole-5-carbonitrile] was tested. Which pIC50 did it give?
A: 6.00 to 6.30

Q: With `CCc1nc2sc(N3CCC(N(C)CC(=O)N4CC(F)C4)C3)nn2c1N(C)c1nc(-c2ccc(F)cc2)c(C#N)s1` (stereo not drawn) [Example 33, 2-{[6-ethyl-2-(3-((2-(3-fluoroazetidin-1-yl)-2-oxoethyl)(methyl)amino)pyrrolidin-1-yl)imidazo[2,1-b][1,3,4]thiadiazol-5-yl](methyl)amino}-4-(4-fluorophenyl)thiazole-5-carbonitrile] as the compound, how does the pIC50 read?
A: 7.00 to 11.00

Q: How did the pIC50 turn out when `CCc1nc2sc(N3CC[C@@H](N(C)CC(=O)N4CC(F)C4)C3)nn2c1N(C)c1nc(-c2ccc(F)cc2)c(C#N)s1` [Example 39, (R)-2-{[6-ethyl-2-(3-((2-(3-fluoroazetidin-1-yl)-2-oxoethyl)(methyl)amino)pyrrolidin-1-yl)imidazo[2,1-b][1,3,4]thiadiazol-5-yl](methyl)amino}-4-(4-fluorophenyl)thiazole-5-carbonitrile] was run?
A: 6.30 to 7.00

Q: How did the pIC50 turn out when `CCc1nc2sc(N3CCN(S(C)(=O)=O)CC3)nn2c1N(C)c1nc(-c2ccc(F)cc2)c(C#N)s1` [Example 1] was run?
A: ≤ 6.00

Q: How did the pIC50 turn out when `CCc1nc2sc(N3CCC(N(C)C(=O)NC4CC4)C3)nn2c1N(C)c1nc(-c2ccc(F)cc2)c(C#N)s1` (stereo not drawn) [Example 27, 1-{1-[5-((5-cyano-4-(4-fluorophenyl)thiazol-2-yl)(methyl)amino)-6-ethylimidazo[2,1-b][1,3,4]thiadiazol-2-yl}pyrrolidin-3-yl}-3-cyclopropyl-1-methylurea] was run?
A: 6.30 to 7.00
